Data as given in a melting point compilation (Tetko et al.; mined from patent text by program, amines drawn as free bases though some values may be those of a salt).

In the case of CC(=O)OCCn1nc(-c2cc(C(C)(C)C)c(O)c(C(C)(C)C)c2)c2ccc(C)nc21, the melting point is reported as 102 to 103 °C.
CC(C)(C(=O)c1cccnc1)c1ccc(Cl)cc1Cl gave a melting point of 103 to 104 °C.
With CC(C)(C)OC(=O)N1CCC(C(=O)C2CCCCC2=O)CC1 (stereo unspecified) the melting point was 71 to 72 °C.
In the case of Cc1ccc(NN)c2c1CC(C)O2 (stereo unspecified), the melting point is reported as 90 to 92 °C.
In the case of Cc1ccc(S(=O)(=O)N2CCN(S(=O)(=O)c3ccc(C)cc3)CC3=CC=C(CN(S(=O)(=O)c4ccc(C)cc4)CC2)S3)cc1, the melting point is reported as 265 to 268 °C.
In the case of CCCOC(=O)Nc1nc2ccccc2c2c1nc(CC)n2CCCCNS(C)(=O)=O, the melting point is reported as 155 to 157 °C.
For CN1CCN(CCCNc2ncc3cc(-c4c(Cl)cccc4Cl)c(N)nc3n2)CC1, the melting point was 208 to 211 °C.
CC(C)c1ncc2n1-c1ccc(Cl)cc1C(c1ccccc1F)=NC2 showed a melting point of 168 to 169 °C.
Work on CCOC(=O)C1=C(CO)NC(C)=C(C(=O)OCc2ccccc2)C1c1ccccc1[N+](=O)[O-] (stereo unspecified) yielded a melting point of 51 to 57 °C.
For O=C(O)CCn1[nH]c(=O)c2ccccc2c1=O, the melting point was 201 to 203 °C.
With CC(C(=O)CCl)c1ccc(-c2ccccc2)c(F)c1 (stereo unspecified) the melting point was 57 to 59 °C.
CCCCCCCCCCCCCCCCCCCCCCSC[C@H](NC(=O)CCCCCCCCCCCCCCC)C(=O)O showed a melting point of 90 to 92 °C.
Compound O=c1[nH]c(=O)n(C2CC(OCc3ccccc3)C(COCc3ccccc3)C2O)cc1I (stereo unspecified) has a melting point of 165 °C.
Compound COC(=O)C(=O)c1cc(O)c(O)c(C#N)c1 has a melting point of 252 °C.
With Cc1nccc(CO)c1OCc1ccccc1 the melting point was 130 to 131 °C.
C=CCOc1ccc(C(=O)C=Cc2cc(OC)cc(OC)c2C)cc1 gave a melting point of 123 to 124 °C.
CNS(=O)(=O)c1cccc(-c2cc(-c3nc(-c4ccc(C(F)(F)F)cc4)cc(C(F)(F)F)n3)ccn2)c1 gave a melting point of 174 °C.
Compound CCOC(OCC)c1cc(NC(c2ccccc2)(c2ccccc2)c2ccccc2)c(F)c(C(C)(C)C)n1 has a melting point of 168 to 170 °C.
With O=C1N(C(c2ccccc2)c2ccccc2)c2cc(F)ccc2C1(O)c1cc2c(cc1O)OCC2 (stereo unspecified) the melting point was 147 to 149 °C.
In the case of CC1(C)Oc2ccc(-c3c(N)c(=O)c3=O)cc2[C@@H](N2Cc3ccccc3C2=O)[C@@H]1O (relative stereo), the melting point is reported as > 250 °C.
With O=C1CCN(Cc2ccccc2O)CC1C(c1ccc(F)cc1)c1ccc(F)cc1 (stereo unspecified) the melting point was 151 to 152 °C.
COC(=O)CN(C)CCNC(=O)c1nc(Cl)c(N)nc1N gave a melting point of 132 to 134 °C.
For Nc1nc2c(c3c1ncn3Cc1cc(-c3ccc(F)cc3)no1)NCCC2, the melting point was 227 to 228 °C.
Work on CCCCCCCC1=CC(=O)NC1(O)CN (stereo unspecified) yielded a melting point of 176 °C.
With COc1ccc(-c2ccc(N)nn2)cc1OC1CCCC1 the melting point was 207 °C.
With COc1ccc(COc2ccccc2Br)cc1 the melting point was 87 to 90 °C.
For Cc1cc(-n2cnnn2)ccc1[N+](=O)[O-], the melting point was 166 to 168 °C.
Compound Cc1cc(C#N)cc(C(=O)NC(C)C2CC2)c1NC(=O)c1cc(Br)nn1-c1ncccc1Cl (stereo unspecified) has a melting point of 244 to 245 °C.
Compound CCCCCCCCCCCCCCCCc1cc(OC)nc(N(C)C)n1 has a melting point of 49 to 50 °C.
In the case of Nc1nc2ccccc2c2c1nc(-c1ccccc1)n2CCCCNC(=O)Nc1ccc(F)cc1, the melting point is reported as 145 to 150 °C.
In the case of Cc1cc(C2CCC2)n2nc(S(=O)(=O)Nc3c(Cl)cccc3Cl)nc2n1, the melting point is reported as 260 °C.
In the case of O=C(Nc1ccccc1OCc1ccccc1)c1nnnn1Cc1ccccc1, the melting point is reported as 140 to 142 °C.
CCC(C)(C)c1ccc(OCCCCc2c(O)cc3ccccc3c2C(N)=O)c(C(C)(C)CC)c1 gave a melting point of 118 to 124 °C.
Compound O=C(c1ccccc1)n1c2ccccc2c2cc(O)c(O)cc21 has a melting point of 260 to 261 °C.
Compound CCOC(=O)c1nc2sc(C(=O)OCC)c(C)c2c(=O)[nH]1 has a melting point of 237 to 238 °C.
Work on CCOC(=O)C1=C(CF)NC(CF)=C(C(=O)OCC)C1c1cccc([N+](=O)[O-])c1 yielded a melting point of 113 to 114 °C.
CN1CCC(c2c[nH]c3ccc(Sc4ccc(Cl)cc4)cc23)CC1 gave a melting point of 148 to 150 °C.
With Cc1oc(-c2ccccc2)nc1COc1ccc(CON=C(CC(N)=O)c2ccccc2)cc1 the melting point was 164 to 165 °C.
[O-][N+]1=C(c2ccccc2Cl)c2cc(Cl)ccc2C=CC1 showed a melting point of 196 to 197 °C.
Work on Cc1nc[nH]c1CSCCNc1cc[nH]c(=O)n1 yielded a melting point of 249 to 251 °C.
CON(C)C(=O)c1sc(SC)c2c1CCc1sc(-c3ccccc3)nc1-2 gave a melting point of 157 to 158 °C.
In the case of COC(=O)N1CCCCc2cc(C3=NNC(=O)SC3C)ccc21 (stereo unspecified), the melting point is reported as 182 °C.
CCCCC1(CCn2ccnc2)SCCS1 gave a melting point of 105 to 108 °C.
Compound COc1ccc(C(=O)c2ccc(OCc3nc(-c4ccccc4)oc3C)cc2C)c(O)c1 has a melting point of 109 to 110 °C.
With Cc1nc2c(cc1C=O)CCCCC2 the melting point was 38 to 40 °C.
CCCC(C=NNC(=O)OCC)c1ccc(Cl)cc1Cl (stereo unspecified) gave a melting point of 127 to 129 °C.
In the case of CCN(CC)CCc1ccc2cc(N)ccc2n1, the melting point is reported as 93 to 94 °C.
For CN=C(NC#N)C1=CC(C)(COC)Oc2ccc([N+](=O)[O-])cc21 (stereo unspecified), the melting point was 121 to 125 °C.
Cc1nn(-c2ccc(F)cc2)cc1C(=O)N(C)c1ccc(OCC(C)(C)C)c(C#N)c1 showed a melting point of 65 to 69 °C.
CS(=O)(=O)NC(=O)CC1(c2ccc(OCc3ccc4ccccc4n3)cc2)CCCC1 showed a melting point of 75 °C.
In the case of CC(C)Nc1nc2ccccc2n2cnnc12, the melting point is reported as 133 to 135 °C.
